In PMC6271893, “In Vitro Antioxidant and Cytotoxic Activity of Some Synthetic Riparin-Derived Compounds” (Molecules, 2014):
Values after ≈ are worked out from the molar mass of the structure shown. Marks after values point to notes of the source that are not given here.

System: not listed separately
Experiment: Scavenging activity of nitric oxide (nitrite production induced by SNP, Griess reaction)
Settings: 1 μg/mL
Experimental: (§1) For the in vitro antioxidant tests the samples were emulsified in 0.05% Tween 80 dissolved in saline 0.9% (used as the vehicle) and tested at concentrations of 1, 5, 10, 25 and 100 µg/mL. The samples for the cytotoxicity tests were diluted in pure and sterile DMSO and tested at concentrations of 25 µg/mL.
Nitric oxide was generated from spontaneous decomposition of sodium nitroprusside in 20 mM phosphate buffer (pH 7.4). Once generated, NO interacts with oxygen to produce nitrite ions, which are measured by the Griess reaction. The reaction mixture (1 mL) containing 10 mM sodium nitroprusside (SNP) in phosphate buffer and the riparins at various concentrations of 1, 5, 10, 25 and 100 µg/mL were incubated at 37 °C for 1 h. A 0.5 mL aliquot was taken and homogenized with 0.5 mL Griess reagent. The absorbance of chromophore was measured at 540 nm. Percent inhibition of generated nitric oxide was measured by comparing the absorbance values of negative controls (only 10 mM sodium nitroprusside and vehicle) to assay preparations. Results were expressed as percentage of nitrite formed by SNP alone.
In the case of O=C(NCCc1ccccc1)c1ccccc1 [Rip-A, N-Phenethylbenzamide], the “Nitrite Production (% induced by SNP)” value is reported as 75.1 ± 1.31 ^a %.

Same assay, conditions: 5 μg/mL
In the case of O=C(NCCc1ccccc1)c1ccccc1 [Rip-A, N-Phenethylbenzamide], the “Nitrite Production (% induced by SNP)” value is reported as 29.1 ± 0.61 ^a %.

Same assay, conditions: 10 μg/mL
For O=C(NCCc1ccccc1)c1ccccc1 [Rip-A, N-Phenethylbenzamide], the “Nitrite Production (% induced by SNP)” value was 29.2 ± 2.05 ^a %.

Same assay, conditions: 25 μg/mL
With O=C(NCCc1ccccc1)c1ccccc1 [Rip-A, N-Phenethylbenzamide] the “Nitrite Production (% induced by SNP)” value was 24.3 ± 0.62 ^a %.

Same assay, conditions: 100 μg/mL
With O=C(NCCc1ccccc1)c1ccccc1 [Rip-A, N-Phenethylbenzamide] the “Nitrite Production (% induced by SNP)” value was 20.4 ± 1.20 ^a %.

Same assay, conditions: nitrite formation
With O=C(NCCc1ccccc1)c1ccccc1 [Rip-A, N-Phenethylbenzamide] the “IC50 Nitrite” value was 0.8404 µg/mL (≈ 3.73 µM).

System: not listed separately
Experiment: Hydroxyl radical scavenging activity (2-deoxyribose degradation, Fenton reaction)
Settings: 1 μg/mL
Experimental: as §1
The formation of OH radicals from Fenton reagents was quantified using the condensation product of the 2-deoxyribose oxidative degradation product, malonaldehyde, with 2-thiobarbituric acid (TBA). Briefly, typical reactions were started by the addition of Fe^2+ (FeSO4 6 mM final concentration) to solutions containing 5 mM 2-deoxyribose, 100 mM H2O2 and 20 mM phosphate buffer (pH 7.2). In order to determine the antioxidant activity of the riparins against the hydroxyl radical, individual tests were performed on each one of the six substances, in which different concentrations of the riparins were added to the system before Fe^2+ addition (Rip-A; Rip-B; Rip-C; Rip-D; Rip-E and Rip-F). Reactions were carried out for 15 min at room temperature and were quenched by the addition of phosphoric acid 4% (v/v), followed by TBA 1% (thiobarbituric acid, v/v in 50 μL NaOH). The solutions were boiled for 15 min to 95 °C and then cooled at room temperature. The absorbance was measured at 532 nm and the results were expressed as MDA equivalents formed by Fe^2+ and H2O2 [25].
In the case of O=C(NCCc1ccccc1)c1ccccc1 [Rip-A, N-Phenethylbenzamide], the “2-Deoxyribose degradation (%)” value is reported as 97.1 ± 0.78 ^a %.

Same assay, conditions: 5 μg/mL
For O=C(NCCc1ccccc1)c1ccccc1 [Rip-A, N-Phenethylbenzamide], the “2-Deoxyribose degradation (%)” value was 76.9 ± 1.10 ^a %.

Same assay, conditions: 10 μg/mL
In the case of O=C(NCCc1ccccc1)c1ccccc1 [Rip-A, N-Phenethylbenzamide], the “2-Deoxyribose degradation (%)” value is reported as 54.5 ± 0.85 ^a %.

Same assay, conditions: 25 μg/mL
In the case of O=C(NCCc1ccccc1)c1ccccc1 [Rip-A, N-Phenethylbenzamide], the “2-Deoxyribose degradation (%)” value is reported as 49.6 ± 0.89 ^a %.

Same assay, conditions: 100 μg/mL
With O=C(NCCc1ccccc1)c1ccccc1 [Rip-A, N-Phenethylbenzamide] the “2-Deoxyribose degradation (%)” value was 44.8 ± 0.30 ^a %.

Same assay, conditions: hydroxyl radical content
In the case of O=C(NCCc1ccccc1)c1ccccc1 [Rip-A, N-Phenethylbenzamide], the “IC50 OH radical” value is reported as 1.501 µg/mL (≈ 6.66 µM).

System: not listed separately
Experiment: Antioxidant potential against the formation of TBARS (AAPH-induced lipid peroxidation of egg yolk homogenate)
Settings: 1 μg/mL
Experimental: as §1
The TBARS assay was employed to quantify lipid peroxidation and an adapted TBARS method was used to measure the antioxidant capacity of the riparins (Rip-A, -B, -C, -D, -E and -F) using egg yolk homogenate as lipid rich substrate. Egg yolk was homogenized (1% w/v) in 20 mM phosphate buffer (pH 7.4), 1 mL of homogenate was sonicated and then homogenized with 0.1 mL of the samples at concentrations of 1, 5, 10, 25 and 100 µg/mL. Lipid peroxidation was induced by the addition of 0.1 mL of 2,2'-azobis(2-methylpropionamidine) dihydrochloride solution (AAPH; 0.12 M). Control was evaluated with only the vehicle. Reactions were carried out for 15 minutes at 37 °C. After cooling, samples (0.5 mL) were centrifuged with 0.5 mL of trichloroacetic acid (15%) at 1,200 ×g for 10 min. An aliquot of 0.5 mL from supernatant was mixed with 0.5 mL TBA (0.67%) and heated at 95 °C for 30 min. After cooling, sample absorbance was measured using a spectrophotometer at 532 nm. The results were expressed as percentage of TBARS formed by AAPH alone (induced control).
For O=C(NCCc1ccccc1)c1ccccc1 [Rip-A, N-Phenethylbenzamide], the “TBARS levels (% AAPH)” value was 40.9 ± 1.77 ^a %.

Same assay, conditions: 5 μg/mL
In the case of O=C(NCCc1ccccc1)c1ccccc1 [Rip-A, N-Phenethylbenzamide], the “TBARS levels (% AAPH)” value is reported as 38.1 ± 0.49 ^a %.

Same assay, conditions: 10 μg/mL
In the case of O=C(NCCc1ccccc1)c1ccccc1 [Rip-A, N-Phenethylbenzamide], the “TBARS levels (% AAPH)” value is reported as 36.7 ± 0.66 ^a %.

Same assay, conditions: 25 μg/mL
For O=C(NCCc1ccccc1)c1ccccc1 [Rip-A, N-Phenethylbenzamide], the “TBARS levels (% AAPH)” value was 35.1 ± 0.88 ^a %.

Same assay, conditions: 100 μg/mL
With O=C(NCCc1ccccc1)c1ccccc1 [Rip-A, N-Phenethylbenzamide] the “TBARS levels (% AAPH)” value was 25.8 ± 0.48 ^a %.

Same assay, conditions: TBARS production
In the case of O=C(NCCc1ccccc1)c1ccccc1 [Rip-A, N-Phenethylbenzamide], the “IC50 TBARS” value is reported as 1.147 µg/mL (≈ 5.09 µM).

System: HEP-2 (laryngeal carcinoma)
Experiment: Cytotoxicity against tumor cell lines (MTT)
Type: cell-based
Settings: Homo sapiens, 72 h, 95% confidence interval in brackets, read-out: IC50 values and confidence intervals, HEP-2
Experimental: (§2) Cells were maintained at 37 °C with 5% CO2 in RPMI 1640 (Himedia^TM, Mumbai, India) or DMEM medium (Gibco^TM, Grand Island, NY, USA) supplemented with 2 mM glutamine, 100 U/mL penicillin, 100 μg/mL streptomycin. The antiproliferative activities of riparins were evaluated in the following human cancer cells lineage: HL-60 (pro-myelocytic leukemia), NCIH-292 (lung carcinoma), and HEP-2 (laryngeal carcinoma) obtained from the Rio de Janeiro Cell Bank (RJ-Brazil). For all experiments, 100 µL of tumor cells were plated in 96-well plates (6 × 10^4 cells/cm^2 for adherent cells or 9 × 10^4 cells/cm^2 for leukemia). Tested compounds (0.1–25 μg/mL) dissolved in 1% DMSO (100 µL) were added to each well and incubated for 72 h. Control groups received the same amount of DMSO. After 69 h of treatment, 25 μL of MTT (5 mg/mL) were added. Three hours later, the MTT formazan product was dissolved in 100 μL of DMSO, and absorbance was measured at 595 nm using a multiplate reader (Thermo Plate®, TP Reader, São Paulo, SP, Brasil).
(§3) The obtained data were evaluated by one-way analysis of variance (ANOVA) followed by a Student Newman Keuls post hoc test. The data concerning release percentage of cytoplasmatic enzyme lactate dehydrogenase (LDH) were reported by mean ± standard deviation and evaluated by one-way analysis of variance (ANOVA) followed by a Tukey post hoc test. In all cases differences were considered significant if p < 0.05, the means and respective standard errors were analyzed in the Graph Pad Prism version 5.0 for Windows software (GraphPad Software Incorporated, San Diego, CA, USA).
Compound O=C(NCCc1ccccc1)c1ccccc1 [Rip-A, N-Phenethylbenzamide] has an IC50 greater than 25 µg/mL.

System: HL-60 (pro-myelocytic leukemia)
Experiment: Cytotoxicity against tumor cell lines (MTT)
Type: cell-based
Settings: Homo sapiens, 72 h, 95% confidence interval in brackets, read-out: IC50 values and confidence intervals, HL-60
Experimental: as §2, §3
With O=C(NCCc1ccccc1)c1ccccc1 [Rip-A, N-Phenethylbenzamide] the IC50 was greater than 25 µg/mL.

System: NCIH-292 (lung carcinoma)
Experiment: Cytotoxicity against tumor cell lines (MTT)
Type: cell-based
Settings: Homo sapiens, NCI-H292, 72 h, 95% confidence interval in brackets, read-out: IC50 values and confidence intervals, NCIH-292
Experimental: as §2, §3
In the case of O=C(NCCc1ccccc1)c1ccccc1 [Rip-A, N-Phenethylbenzamide], the IC50 is reported as greater than 25 µg/mL.

System: murine peritoneal macrophages RAW 264.7
Experiment: Cytotoxicity assay on RAW 264.7 (LDH release)
Type: cell-based
Settings: 25 µg/mL, RAW 264.7
Experimental: Murine peritoneal macrophages of the cell line RAW 264.7 were obtained from the American Type Culture Collection (ATCC, Rockville, MD, USA), and cultured at 37 °C with CO2 at 5% in DMEM-F12 supplemented with 10% fetal bovine serum (FBS; Hyclone^TM, Logan, UT, USA) and gentamicin (50 μg/mL). RAW 264.7 cells (5 × 10^5 cells/mL) were cultured and incubated for 24 h with the riparins A, B, C, D, E and F at the final concentration of 25 µg/mL […]. The cytotoxicity assay was performed by LDH assay. The release of LDH (cytoplasmic lactate dehydrogenase enzyme) was determined using 50 μL of culture supernatant with 100 μL of LDH substrate plus and 5 μL ferric alum (5 mg/mL), at 37 °C for 3 min. Then, 100 μL of the NAD solution and phenazine methosulphate were added to the mixture, maintaining the temperature at 37 °C for 5 min (Labrax Commercial Kit, Clontech, Palo Alto, CA, USA). LDH is an oxidoreductase which catalyzes the interconversion of lactate and pyruvate and, for being a stable cytosolic enzyme, after damage to cell membrane it is released in the cellular environment and because of this LDH is an indirect indicator of cytotoxicity. LDH concentration was determined by colorimetry at 492 nm. The specific release of LDH was calculated as percentage of the controls (not treated cells as negative control and cells treated with 1%Triton X-100 as positive control).
as §3
In the case of O=C(NCCc1ccccc1)c1ccccc1 [Rip-A, N-Phenethylbenzamide], the “LDH % Release” value is reported as 28.13%.
